Reference: patent US11401257B2, “Solid forms of 2-(4-chlorophenyl)-N-((2-(2,6-dioxopiperidin-3-yl)-1-oxoisoindolin-5-yl)methyl)-2,2-difluoroacetamide, and their pharmaceutical compositions and uses” (Celgene Corporation, priority 2016, dated 2022)
Converted amounts (≈) assume the structure as drawn.

Tests used:
Format in all cases: physicochemical
physchem [1] = details: water, thermodynamic from solid, Approximate Solubility
Method: In order to select the screening solvents and to determine the concentration range to be used in the screen, a quantitative solubility assessment was performed on Form B and Form C of Compound 1.

[2] = Hygroscopicity by dynamic vapor sorption (DVS); details: for water uptake (DVS): relative humidity increased from about 0% to about 90% RH; for DVS water uptake: up to 90% RH
Method: Hygroscopicity was determined on a Surface Measurement Systems DVS. Typically a sample size of 5-20 mg was loaded into the DVS instrument sample pan and the sample was analyzed on a DVS automated sorption analyzer at room temperature. The relative humidity was increased from 0% to 90% RH at 10% RH step, then decreased in a similar manner to accomplish a full adsorption/desorption cycle.

physchem [3] = details: for solubility at 24 h: thermodynamic from solid
Method: Solubility of Form C in selected aqueous and organic solvents was determined by mixing solid with solvents at room temperature. […]

[4] = Form conversion experiments (interconversion among solid forms); details: anhydrates of Compound 1
Method: Further form conversion experiments were performed to determine interconversion among solid forms.

Row | Compound | solubility (physchem [1]) [µg/mL] | water uptake (DVS) [2] | DVS water uptake [2] [wt % water] | solubility (physchem [3]; 2 h) [µg/mL] | solubility at 24 h (physchem [3]; pH 4, aqueous buffer) [µg/mL] | solubility at 24 h (physchem [3]; pH 6.8, aqueous buffer) [µg/mL] | thermodynamic stability among the crystal forms [4]
1 | O=C1CCC(N2Cc3cc(CNC(=O)C(F)(F)c4ccc(Cl)cc4)ccc3C2=O)C(=O)N1 (centres unmarked) [Form B, 2-(4-chlorophenyl)-N-((2-(2,6-dioxopiperidin-3-yl)-1-oxoisoindolin-5-yl)methyl)-2,2-difluoroacetamide] | < 1000 | about 1.4 % w/w | ~1.4 | – | – | – | –
2 | O=C1CCC(N2Cc3cc(CNC(=O)C(F)(F)c4ccc(Cl)cc4)ccc3C2=O)C(=O)N1 (centres unmarked) [Form A, 2-(4-chlorophenyl)-N-((2-(2,6-dioxopiperidin-3-yl)-1-oxoisoindolin-5-yl)methyl)-2,2-difluoroacetamide] | – | about 1.2 % w/w | ~1.2 | – | – | – | –
3 | O=C1CCC(N2Cc3cc(CNC(=O)C(F)(F)c4ccc(Cl)cc4)ccc3C2=O)C(=O)N1 (centres unmarked) [Form C, 2-(4-chlorophenyl)-N-((2-(2,6-dioxopiperidin-3-yl)-1-oxoisoindolin-5-yl)methyl)-2,2-difluoroacetamide] | – | about 0.6 % w/w | ~0.6 | 843 (≈ 1830 µM) | 1 (≈ 2.17 µM) | 1 (≈ 2.17 µM) | most thermodynamically stable anhydrate
